Patent EP0076669A1, “Novel 3-phenyl-1-indanamines, pharmaceutical compositions and methods of preparation” (KEFALAS A/S, priority 1981, dated 1983)
Like-named read-outs stand apart in the source and are kept apart here.

What was measured:
[1] = system: tetrabenazine induced ptosis; experiment: Tetrabenazine ptosis antagonism; assay type: in vivo; conditions: Mus musculus, ip, 0.5 h; i.p., mice; tetrabenazine 40 mg/kg i.p. 30 min after test substance
Description: For insoluble substances the doses 0, 1/8, 1/32 and 1/128 of "i.^p. LD50" are used. 3 mice are used for each dose level. Thirty minutes after administration of test substance, tetrabenazine, 40 mg/kg, is injected i.p. Ptosis is evaluated 30 minutes after administration of tetrabenazine, the following rating scale being used: 0 = normal eyes, 1=1/4 closed eyes, 2 = 1/2 closed eyes, 3 = 3/4 closed eyes and 4 = completely closed eyes. Ptosis is evaluated 30 seconds after tilting the cage 3 times. The tilting is carried out in such a way that the animals slide along the floor of the cage.
The results are recorded as % inhibition of ptotic score calculated on the basis of the score of the control group. If ptotic score for the control group is < 10 the test is rejected and another is performed. The registration can also be done as an on line procedure.

[2] = system: potentiation of 5-HTP; experiment: 5-HTP potentiation (5-HTP syndrome); assay type: in vivo; conditions: Mus musculus, ip, 0.5 h; i.p., mice; 5-HTP 100 mg/kg i.v. 30 min after test substance; read-out: 5-HTP potentation,ED50
Description: The test substance is given i.p. or p.o. in the doses 10, 10, 2.5, 0.63 and 0 mg/kg. Three mice are used for each dose level. One of the groups on the highest dose is used as control of the compounds own effect. […] Thirty minutes after administration of test substance, 5-HTP, 100 mg/kg i.v. is given (injection time 5-10 sec.). After this 5-HTP dose the animals remain unaffected. If the animals have been pretreated with a substance, which inhibits the re-uptake of 5-HT, a 5-HTP syndrome will occur. This is characterized by the following symptoms: 1) excitation, 2) tremor, and 3) abduction of the hind limbs.
After the administration of 5-HTP the animals are observed for 15 minutes and each animal is given one point for each symptom present. Thus, the maximal score for a group consisting of 3 mice is 9.
The results are stated as fractions: 0/9, 1/9, 2/9 ..... 8/9, 9/9, where 0, 1, 2 ..... 8, 9 are the number of points per group after the dose in question.

[3] = molecular target: T1, ^3H-DA uptake in striatal synaptosomes (Rattus norvegicus, UniProt P23977); experiment: biochemical; assay type: biochemical, Rats
T1 construct: the two corpura striata are dissected out and gently homogenized; from tissue; host or cells: rat corpus striatum, synaptosomal P2 fraction
Description: ^3H-DA uptake in striatal synaptosomes in vitro.
(§1) 0.32 M sucrose containing 1 mM Nialamide
Krebs-Ringer-phosphate buffer, pH 7.4
3,4-dihydroxyphenylethylamine [ethyl-1-^3H(N)] = ^3H-DA, spc. act. app. 15 Ci/mmol, New England Nuclear
(§2) Thomas Tissue Grinder, clearance 0.004-0.006 inch.
Rats are killed by a blow to their head, exsanguinated and their brains removed. The brain is placed on a precooled glassplate, and the two corpura striata are dissected out and gently homogenized in 40 volumes of ice cold 0.32 M sucrose containing 1 mM of nialamide using a hand homogenizer with teflon pestle. The P2-fraction (synaptosomal fraction) is obtained by centrifugation (600 g, 10 min., 25000 g, 55 min. 4 °C) and suspended in 40 volumes of a modified Krebs-Ringer-phosphate buffer, pH 7.4. To 200µl of the synaptosomal fraction on ice are added 3700 µl modified Krebs-Ringer-phosphate buffer - containing test compounds. After a preincubation at 37°C for 5 min. […] The incubation is terminated by filtering the samples under vacuum through Millipore filters with a wash of 5 ml buffer containing 10 µM of unlabelled DA. After solubilizing the filters in 1 ml of cellosolve the radioactivity is determined by liquid scintillation counting after the addition of 10 ml of Insta-Gel. The unspecific binding of ^3H-DA is determined by incubating control samples on ice instead of at 37 °C.
All experiments are performed in ttriplicate.
The mean of all control samples and ice samples are calculated.

[4] = molecular target: T2, ^3H-5-HT uptake in synaptosomes (Rattus norvegicus, UniProt P31652); experiment: Inhibition of 3H-5-HT uptake in synaptosomes in vitro; assay type: biochemical, Rats
T2 construct: Rest of the brain is gently homogenized (glass teflon homogenizer); from tissue; host or cells: rat brain without cerebellum, pons and medulla oblongata, synaptosomal P2 fraction
Description: Inhibition of ^3H-5-HT uptake in synaptosomes in vitro.
as §1
Krebs-Ringer-Phosphate buffer, pH 7.4
Millipore filters (HAWPO 2500, 0.45 µ)
5-hydroxy [G-^3H] tryptamine creatinine sulphate = ^3H-5-HT, spc. act. app. 10 Ci/mmol, The Radiochemical Centre, Amersham.
as §2
Rats are killed by a blow on the head and exsanguinated. The brain is quickly removed, rinsed for blood and placed on a cold plate. The cerebellum, pons and medulla oblongata are removed. Rest of the brain is gently homogenized (glass teflon homogenizer) in 40 volumes of ice cold 0.32 M of sucrose containing 1 mM of nialamide. The P2 fraction (synaptosomal fraction) is obtained by centrifugation (600 g, 10 min. and 25000 g, 55 min., 4°C) and suspended in 40 volumes of a modified Krebs-Ringer-Phosphate buffer, pH 7.4.
To 200µl of the synaptosomal suspension on ice are added 3700 µl modified Krebs-Ringer-phosphate buffer, pH 7.4, containing test substances. After preincubation at 37°C for 5 min., 100 µl of ^3H-5-HT (final concentration in the samples = 10 nM) are added and the samples are incubated for 10 min. at 37 °C. The incubation is terminated by filtering the samples under vacuum through Millipore filters with a wash of 5 ml buffer containing 10 µM of unlabelled 5-HT. After solubilizing the filters in I ml of cellosolve, 10 ml of Instagel are added, and the radioactivity is determined by liquid and scintillation counting. The unspecific binding and passive transport of ^3H-5-HT is determined by incubating control samples on ice instead of at 37°C. All experiments are performed in triplicate. The mean of all control samples are calculated.
The IC50- values are determined as the concentrations, at which the uptake are 50 per cent of the uptake in control sample -uptake in ice samples.

[5] = rat striatal synaptosomes, 3H-DA 12.5 nM, read-out: Uptake Inhibition IC50 DA
[6] = rat brain synaptosomes, 3H-5-HT 10 nM, read-out: Uptake Inhibition IC50 5-HT
[7] = read-out: Uptake Inhibition IC50 DA

T1 sequence (P23977 whole entry): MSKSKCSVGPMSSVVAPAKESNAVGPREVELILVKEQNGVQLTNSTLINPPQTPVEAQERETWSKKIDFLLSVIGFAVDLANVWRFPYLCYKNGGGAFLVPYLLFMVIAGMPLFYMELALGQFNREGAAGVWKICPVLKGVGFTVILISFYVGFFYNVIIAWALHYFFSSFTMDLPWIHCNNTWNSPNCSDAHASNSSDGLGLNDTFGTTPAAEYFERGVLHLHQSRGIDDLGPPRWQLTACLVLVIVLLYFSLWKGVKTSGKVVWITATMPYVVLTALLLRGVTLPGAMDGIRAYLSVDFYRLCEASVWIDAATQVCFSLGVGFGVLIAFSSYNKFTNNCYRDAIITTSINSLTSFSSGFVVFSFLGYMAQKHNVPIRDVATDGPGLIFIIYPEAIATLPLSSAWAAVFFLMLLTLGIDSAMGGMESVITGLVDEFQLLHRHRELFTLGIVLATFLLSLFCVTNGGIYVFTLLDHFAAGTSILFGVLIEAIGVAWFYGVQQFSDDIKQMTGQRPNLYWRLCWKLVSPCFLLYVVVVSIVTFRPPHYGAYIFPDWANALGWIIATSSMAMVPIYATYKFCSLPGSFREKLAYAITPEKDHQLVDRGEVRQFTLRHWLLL
T2 sequence (P31652 whole entry): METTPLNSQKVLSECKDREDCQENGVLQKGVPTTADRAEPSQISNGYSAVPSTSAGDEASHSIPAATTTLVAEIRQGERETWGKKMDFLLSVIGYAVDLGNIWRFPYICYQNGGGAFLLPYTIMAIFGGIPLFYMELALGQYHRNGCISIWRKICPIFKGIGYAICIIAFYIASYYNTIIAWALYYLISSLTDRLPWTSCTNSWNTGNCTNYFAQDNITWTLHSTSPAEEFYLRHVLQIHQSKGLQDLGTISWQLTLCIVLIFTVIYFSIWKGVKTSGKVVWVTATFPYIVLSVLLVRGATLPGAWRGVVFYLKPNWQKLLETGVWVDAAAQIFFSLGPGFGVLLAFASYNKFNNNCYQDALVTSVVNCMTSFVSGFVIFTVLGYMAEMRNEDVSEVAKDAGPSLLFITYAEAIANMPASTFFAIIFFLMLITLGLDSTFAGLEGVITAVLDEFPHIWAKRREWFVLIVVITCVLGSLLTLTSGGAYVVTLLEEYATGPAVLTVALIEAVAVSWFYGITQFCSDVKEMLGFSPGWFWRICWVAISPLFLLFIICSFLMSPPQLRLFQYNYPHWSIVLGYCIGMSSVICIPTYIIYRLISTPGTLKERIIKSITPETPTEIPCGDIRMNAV

Row | SMILES | ED50 [1] [µmol/kg] | ED50 [2] [µmol/kg] | IC50 [3, 5] [nM] | IC50 [4, 6] [nM] | IC50 [3] [nM] | IC50 [3, 7] [nM] | IC50 [4] [nM]
1 | Cc1ccc2c(c1)[C@H](N(C)C)C[C@H]2c1ccc(F)cc1 (relative stereo) [Lu 18-125-c] | 41 | 44 | 100 | 9.8 |  |  | 
2 | CCN(CC)[C@@H]1C[C@@H](c2ccc(F)cc2)c2ccc(F)cc21 (relative stereo) [Lu 18-149-c] | 52 |  | 68 | 140 |  |  | 
3 | CSc1ccc2c(c1)[C@H](N(C)C)C[C@H]2c1ccc(F)cc1 (relative stereo) [Lu 19-016-c] | 35 | 39 | 170 | 4.5 |  |  | 
4 | CN(C)[C@@H]1C[C@@H](c2ccc(N)cc2)c2ccc(F)cc21 (relative stereo) [Lu 19-021] | 9 | 15 | 190 | 330 |  |  | 
5 | CN(C)CCC=C1c2ccccc2CCc2ccccc21 [Amitrip-tyline, amitriptyline, reference compound] | 7 |  |  |  | 5400 |  | 
6 | Cc1ccc2c(c1)C(N(C)C)CC2c1ccc(F)cc1 (centres unmarked) [Lu 18-119] | 45 | > 37 | 71 | 1.4 |  |  | 
7 | CN(C)C1CC(c2ccc(Cl)c(Cl)c2)c2ccccc21 (centres unmarked) [Lu 18-122-c] | 14 | 10 | 27 | 0.37 |  |  | 
8 | CN(C)C1CC(c2ccc(Cl)cc2Cl)c2ccccc21 (centres unmarked) [Lu 18-137-c] | 23 | 19 | 860 | 0.03 |  |  | 
9 | CN(C)C1CC(c2ccc(F)cc2)c2ccc(F)cc21 (centres unmarked) [Lu 18-147] | > 147 | 21 | 440 | 1.2 |  |  | 
10 | CCN(CC)C1CC(c2ccc(F)cc2)c2ccc(F)cc21 (centres unmarked) [Lu 18-148-c] | > 118 |  | 1600 | 440 |  |  | 
11 | CN(C)C1CC(c2ccc(F)cc2)c2ccc(C(F)(F)F)cc21 (centres unmarked) [Lu 18-150-c] | > 111 | 101 | 340 | 4.3 |  |  | 
12 | CCN(CC)C1CC(c2ccc(Cl)c(Cl)c2)c2ccccc21 (centres unmarked) [Lu 18-188-c] | > 108 |  |  | 13 |  | 120 | 
13 | CN(C)C1CC(c2ccc(F)cc2)c2ccccc21 (centres unmarked) [Lu 19-008-c] | > 137 | 25 | 250 |  |  |  | 
14 | CSc1ccc2c(c1)C(N(C)C)CC2c1ccc(F)cc1 (centres unmarked) [Lu 19-017-c] | 27 | 23 | 150 | < 1 |  |  | 
15 | CN(C)C1CC(c2ccc(N)cc2)c2ccc(F)cc21 (centres unmarked) [Lu 19-022-c] | 19 | 14 | 170 |  |  |  | 
16 | CN(C)C1CC(c2ccccc2)c2ccccc21 (centres unmarked) [Lu 19-025-c, reference compound] | > 143 | > 36 |  | 9.5 |  | 340 | 
17 | NC1CC(c2ccc(Cl)c(Cl)c2)c2ccccc21 (centres unmarked) [Lu 19-030-o] | 16 | > 27 | 7.4 | 15 |  |  | 
18 | CN(C)C1CC(O)(c2ccc(Cl)c(Cl)c2)c2ccccc21 (centres unmarked) [Lu 19-034, N,N-Dimethyl-3-(3,4-dichlorophenyl)-3-hydroxy-1-indanamine] | 9 | 11 | 130 |  |  |  | 1.7
19 | CCNC1CC(c2ccc(Cl)c(Cl)c2)c2ccccc21 (centres unmarked) [Lu 19-041-c] | > 117 | 24 | 62 |  |  |  | 
